Source: patent US20230080054A1 (ILDONG PHARMACEUTICAL CO., LTD., priority 2021, published 2023)

Experiments:
human ANO6 [1] = target: T1, human ANO6 (Homo sapiens, UniProt Q4KMQ2); test: YFP quenching assay (ANO6 ion channel activity); type: cell-based; settings: test compound 1 μM, 10 μM ionomycin, read-out: Inhibition Level 1 μM
T1 construct: expressed in transfected cells
T1 sequence (Q4KMQ2 1-931 isoform Q4KMQ2-2): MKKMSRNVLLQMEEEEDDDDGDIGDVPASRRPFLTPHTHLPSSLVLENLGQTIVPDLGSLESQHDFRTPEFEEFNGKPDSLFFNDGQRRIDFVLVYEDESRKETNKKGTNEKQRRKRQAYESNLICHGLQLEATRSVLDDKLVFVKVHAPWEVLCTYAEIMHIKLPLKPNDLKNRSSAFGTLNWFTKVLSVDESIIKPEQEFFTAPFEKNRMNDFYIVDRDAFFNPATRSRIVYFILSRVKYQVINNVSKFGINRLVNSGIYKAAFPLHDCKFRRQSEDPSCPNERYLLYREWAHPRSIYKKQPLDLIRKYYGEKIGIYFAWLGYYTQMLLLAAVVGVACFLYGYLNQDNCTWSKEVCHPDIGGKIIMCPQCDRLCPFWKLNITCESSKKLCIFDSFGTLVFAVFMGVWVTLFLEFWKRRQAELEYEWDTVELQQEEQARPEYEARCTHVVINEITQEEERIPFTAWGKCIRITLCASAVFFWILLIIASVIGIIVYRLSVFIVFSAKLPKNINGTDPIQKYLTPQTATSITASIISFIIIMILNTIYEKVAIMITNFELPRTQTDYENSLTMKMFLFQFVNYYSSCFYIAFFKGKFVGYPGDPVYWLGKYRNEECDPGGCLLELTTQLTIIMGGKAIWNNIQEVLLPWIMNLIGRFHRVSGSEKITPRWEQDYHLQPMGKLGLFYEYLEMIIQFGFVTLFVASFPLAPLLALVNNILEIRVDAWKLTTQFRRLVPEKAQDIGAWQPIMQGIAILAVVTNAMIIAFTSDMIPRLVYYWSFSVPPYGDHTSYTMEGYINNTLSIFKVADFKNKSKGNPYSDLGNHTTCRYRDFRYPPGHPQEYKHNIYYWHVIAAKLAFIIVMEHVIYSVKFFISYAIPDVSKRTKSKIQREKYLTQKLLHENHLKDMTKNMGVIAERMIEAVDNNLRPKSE
How it was run: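 FRT cells stably expressing human ANO6 and YFP-H148Q/I152L/F46L, preincubated 10 min at 40° C with compounds (1% DMSO) in PBS. Quench read every 0.4 s after injecting 140 mM SCN- with 10 μM ionomycin; % inhibition from the 3.6–7.6 s fluorescence difference, normalised to no-ionomycin (100%) and ionomycin-only (0%) wells, duplicate or triplicate.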

human ANO6 [2] = target: T1, human ANO6; test: LACT C2 assay (phosphatidylserine scramblase function assay); type: cell-based; settings: FRT cells expressing human ANO6, 10 μM ionomycin; for inhibition at 0.1 µM: test compound 100 nM, read-out: Inhibition Level 100 nM; for inhibition at 1 µM: test compound 1 μM, read-out: Inhibition Level 1 μM
How it was run: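 Inhibition was normalised between ionomycin-only (0%) and untreated (100%) wells, with triplicates averaged. Readout was background-corrected Lact-C2-GFP (500 nM) fluorescence from imaged cells. The cells were FRT cells stably expressing human ANO6, given compound at 1% DMSO for 10 min before a 10 min 10 μM ionomycin challenge.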

O=C(NCCc1cccc(C(F)(F)F)c1)c1cccc(Nc2ncc(-c3cccc(F)c3)cn2)c1 [Compound 79, 3-{[5-(3-fluorophenyl)pyrimidin-2-yl]amino}-N-{2-[3-(trifluoromethyl)phenyl]ethyl}benzamide]
≥ 60%: inhibition at 1 µM (human ANO6 [1]) | inhibition at 0.1 µM (human ANO6 [2]) | inhibition at 1 µM (human ANO6 [2])

O=C(Nc1ccc(Cl)c(Cl)c1)c1cccc(Nc2ncc(-c3cccc(F)c3)cn2)c1 [Compound 118, N-(3,4-dichlorophenyl)-3-{[5-(3-fluorophenyl)pyrimidin-2-yl]amino}benzamide]
≥ 60%: inhibition at 1 µM (human ANO6 [1]) | inhibition at 0.1 µM (human ANO6 [2]) | inhibition at 1 µM (human ANO6 [2])

O=C(N[C@@H]1C[C@H]1c1ccccc1)c1cccc(Nc2ccc(-c3cccc(F)c3)cn2)c1 [Compound 123, 3-{[5-(3-fluorophenyl)pyridin-2-yl]amino}-N-[(1R,2S)-2-phenylcyclopropyl]benzamide]
≥ 60%: inhibition at 1 µM (human ANO6 [1]) | inhibition at 0.1 µM (human ANO6 [2]) | inhibition at 1 µM (human ANO6 [2])

O=C(N[C@@H]1C[C@H]1c1ccccc1)c1cccc(Nc2ccc(-c3ccccc3)nn2)c1 [Compound 68, N-[(1R,2S)-2-phenylcyclopropyl]-3-[(6-phenylpyridazin-3-yl)amino]benzamide]
≥ 60%: inhibition at 1 µM (human ANO6 [1]) | inhibition at 0.1 µM (human ANO6 [2]) | inhibition at 1 µM (human ANO6 [2])

O=C(N[C@@H]1C[C@H]1c1ccccc1)c1cccc(Nc2ncc(-c3cccc(F)c3)cn2)c1 [Compound 119, 3-{[5-(3-fluorophenyl)pyrimidin-2-yl]amino}-N-[(1R,2S)-2-phenylcyclopropyl]benzamide]
≥ 60%: inhibition at 1 µM (human ANO6 [1]) | inhibition at 0.1 µM (human ANO6 [2]) | inhibition at 1 µM (human ANO6 [2])

O=C(Nc1cccc(F)c1)c1cccc(Nc2ccc(-c3cccc(F)c3)cn2)c1 [Compound 122, N-(3-fluorophenyl)-3-{[5-(3-fluorophenyl)pyridin-2-yl]amino}benzamide]
≥ 60%: inhibition at 1 µM (human ANO6 [1]) | inhibition at 0.1 µM (human ANO6 [2]) | inhibition at 1 µM (human ANO6 [2])

O=C(NCCC1CCCCC1)c1cccc(Nc2ncc(-c3cccc(F)c3)cn2)c1 [Compound 80, N-(2-cyclohexylethyl)-3-{[5-(3-fluorophenyl)pyrimidin-2-yl]amino}benzamide]
≥ 60%: inhibition at 1 µM (human ANO6 [1]) | inhibition at 0.1 µM (human ANO6 [2]) | inhibition at 1 µM (human ANO6 [2])
